These results are taken from patent US20210137958A1, “PHARMACEUTICAL COMPOSITIONS OF DECITABINE” (SHILPA MEDICARE LIMITED, priority 2018, published 2021).

The format of data set [1] is physicochemical. An excerpt: a) Impurity 1 is formed in acidic and basic conditions. Impurity 1 is chemically 5-Azacytosine or 4-amino-1, 3, 5-triazin-2(1H)-one and represented by following structure.
b) Impurity 2 is an oxidation impurity formed by peroxide stress and is chemically (4-amino-1-(tetrahydro-4-hydroxy-5-(Hydroxymethyl)furan-2-yl)-1,3,5-triazin-2(1H)-one or alpha isomer and represented by following structure
c) Impurity 3 is an oxidation impurity formed by peroxide stress. Impurity 3 is chemically represented as (2-Deoxy-ribufuranosyl-3-guanylurea) or deformyl impurity and represented by following structure
d) NFDU impurity is a transition impurity and increases on oxidation by peroxide stress chemically represented as N-(formylamidino) N′-β-D-2′-deoxyribofuranosylurea and structurally represented as […]

The conditions of data set [2]: reconstituted and diluted Dacogen solution; cited from earlier work.

Regarding `Nc1ncn([C@H]2C[C@H](O)[C@@H](CO)O2)c(=O)n1` [decitabine, 4-amino-1-(2-deoxy-β-D-erythro-pentofuranosyl)-1,3,5-triazin-2(1H)-one], the “Impurities obtained on forced degradation” value in data set [1] was “four known impurities namely Impurity-1, Impurity-2, Impurity-3 and NFDU are obtained”. The “Stability in aqueous media” value in data set [2] is “highly unstable”.
